For data set [1], the system named is kainate receptors. The settings on record: cited from earlier work.
In data set [2] the test system is excessive barking. Kind of data set: Excessive barking of a Pomeranian with separation anxiety during 30 minutes after every one left the room. The format is in vivo, dog (Pomeranian). The protocol:
The following experiment was performed by using an 11 years old Pomeranian (4.5 kg weight) in which a symptom of separation anxiety was confirmed.
The experimental animal was fed in a room which was equipped with an air conditioner keeping 22° C. and were provided with 200 g of canned dog food (Science Diet Maintenance, beef can, Japan Hills Colgate ) twice per day in the morning and in the evening. Water was freely provided. The animals had been habituated in the experimental cages before recording the frequency of excessive barking with a set up video camera. Excessive barking during 30 minutes after every one left the room was recorded for 2 days. The barking frequency on day 1 was 178 times and 203 times on day 2. […] The barking frequency for that recording was 0 (zero).

For data set [3], the system named is excessive barking. Kind of data set: Excessive barking of beagles during 5 minutes before feeding after intravenous SKF97541. The format is in vivo, dog (beagles). The settings on record: mean and standard error. The protocol: Two ovariectomized healthy female beagles (10 kg) of 2 years old were used for the following experiments.
(§1) The experiments was performed for seven (7) days as one cycle and the data were recorded, which were repeated for 3 months (12 cycles). The data were statistically processed. The experimental dogs were fed in a room which was equipped with an air conditioner keeping 22° C. During the first 6 days, the animals were fed with 400 g of food (Science Diet Maintenance, dry, Japan Hills Colgate) at 4 o'clock every day. Water was freely provided. The animals were habituated in the experimental cages. The seventh (7th) day in each cycle, the condition was kept except that the indicated amount of SKF97541 ([…] receptor agonist) was intravenously administrated at 2 o'clock P.M. The frequency of barking during 5 minutes before feeding was recorded every day by a video camera. The ratio of the frequency of barking on the day where the animals were received SKF97541 to the mean values of the barking frequency during the first 6 days where the animals were not received SKF97541 is indicated as percentages in Table 1 and FIG. 1.

Data set [4] in a line: General symptom of animals, beagle experiment. In kind it is in vivo, dog (beagles). Conditions: beagles, intravenous SKF97541. The protocol: as §1

Turning to `C=C(C)[C@H]1CN[C@H](C(=O)O)[C@H]1CC(=O)O` [kainate], the “induction of running activity in rat” value in data set [1] was “induced”.
As for `CP(=O)(O)CCCN` [SKF97541, 3-aminopropyl(methyl)phosphinic acid], the “barking frequency during 30 minutes after every one left the room” value in data set [2] (SKF97541 intravenous 0.05 mg/kg body weight) and in data set [2] (SKF97541 intravenous 0.1 mg/kg body weight) was “did not bark” each time. Also, the “(frequency of barking on the administrated day) / (frequency of barking on non-administrated days)” value in data set [3] (amount of administrated SKF97541 0.025 (unit not given)) turned out to be 118.2 ± 0.0%; in data set [3] (amount of administrated SKF97541 0.05 (unit not given)), 90.2 ± 6.2%; in data set [3] (amount of administrated SKF97541 0.1 (unit not given)) it was 44.0 ± 1.1%; in data set [3] (amount of administrated SKF97541 0.2 (unit not given)) it was 8.8 ± 8.8%; in data set [3] (amount of administrated SKF97541 0.5 (unit not given)), 0%. The “general symptom of animals” value in data set [4] is “no notable point regarding to the general symptom of animals was observed”.
Take `O=C1N=c2cc([N+](=O)[O-])c([N+](=O)[O-])cc2=NC1=O` [DNQX, 6,7-dinitroquinoxaline-2,3-dione]: the “inhibition of running activity induced by kainate” value in data set [1] (rat) was “inhibited”.
`NCCCC(=O)O` [GABA, γ-aminobutyric acid]: in data set [2] (150 mg powdered GABA mixed with canned dog food, oral, untreated days 178 and 203 times), the “barking frequency during 30 minutes after every one left the room” value stood at 0.
